# Laboratory results from patent US20220304976A1, “Method of simultaneously treating viral disease caused coronavirus, its variants and mutants using a pharmaceutical micronutrient composition” (priority 2021, published 2022).
# Read-outs that look alike come from different tables or passages of the source.
# Experiments:
# hACE2 receptor = molecular target: T1, hACE2 receptor (Homo sapiens, UniProt Q9BYF1); format: binding; settings: for Binging with ACE2 (% of control ± SD): Table 3
# T1 construct: purchased GenScript
# T1 sequence (Q9BYF1 18-740): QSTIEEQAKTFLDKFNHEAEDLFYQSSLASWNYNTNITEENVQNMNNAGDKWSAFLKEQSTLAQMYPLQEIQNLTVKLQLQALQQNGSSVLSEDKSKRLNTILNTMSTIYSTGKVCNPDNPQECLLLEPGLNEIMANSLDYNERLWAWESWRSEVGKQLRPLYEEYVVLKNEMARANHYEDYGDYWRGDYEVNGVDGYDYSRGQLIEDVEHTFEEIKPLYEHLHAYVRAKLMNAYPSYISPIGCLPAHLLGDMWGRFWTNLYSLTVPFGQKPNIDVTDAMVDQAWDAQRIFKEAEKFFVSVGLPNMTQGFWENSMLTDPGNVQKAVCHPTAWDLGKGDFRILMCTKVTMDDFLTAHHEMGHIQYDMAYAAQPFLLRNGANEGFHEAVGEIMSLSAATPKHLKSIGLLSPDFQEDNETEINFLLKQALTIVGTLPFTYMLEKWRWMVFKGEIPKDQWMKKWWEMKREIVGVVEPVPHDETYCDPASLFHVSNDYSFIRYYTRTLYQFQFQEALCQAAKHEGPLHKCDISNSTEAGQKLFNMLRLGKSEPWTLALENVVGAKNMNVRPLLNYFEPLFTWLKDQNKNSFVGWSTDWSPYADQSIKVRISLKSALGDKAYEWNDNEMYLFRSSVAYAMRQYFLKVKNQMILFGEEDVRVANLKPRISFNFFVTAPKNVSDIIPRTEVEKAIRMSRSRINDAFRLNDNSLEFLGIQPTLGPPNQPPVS
# [1] = molecular target: T2, RBD of SARS-CoV-2 spike protein binding to hACE2 receptor (Severe acute respiratory syndrome coronavirus 2, UniProt P0DTC2); assay: biochemical; settings: for inhibition at 100 µg/mL: 100 μg/ml, read-out: efficacy in inhibiting RBD binding to hACE2
# T2 construct: purchased GenScript
# [2] = test system: SARS-CoV-2 spike protein pseudo-typed virions; format: cell-based
# [3] = test system: SARS-CoV-2 spike protein pseudo-typed virions; format: cell-based; remark: listed apart in the source
# IL-6 secretion = assay: Interleukin 6 (IL-6) assay in HSAEpC (ELISA); format: cell-based, human; settings: LPS 5 mcg/ml
# Experimental: Interleukin 6 (IL-6) assay: Human Small Airways Epithelial Cells (HSAEpC) were supplied by ATCC and cultured in Small Airways Epithelial Cells culture medium (ATCC). SAEC cells were seeded in six-well plates covered with collagen at 6 passage and grown to confluent layer. […] After 72 hours incubation conditioned media were collected and IL-6 content was measured using R&D Systems Human IL6 ELISA assay in accordance with the manufacture's protocol. Results were calculated with Microsoft Excel software and presented as a percentage of unsupplemented controls (an average of three repetitions+/−standard deviation).
Compound,Binging with ACE2 (% of control ± SD) (hACE2 receptor; tested at 0.1 mg/ml),also measured
O=C1O[C@H]2[C@@H]3OC(=O)c4cc(O)c(O)c(O)c4-c4c(O)c(O)c5oc(=O)c6c(c(O)c(O)c7oc(=O)c4c5c76)-c4c(cc(O)c(O)c4O)C(=O)OC[C@H]3OC(O)[C@@H]2OC(=O)c2cc(O)c(O)c(O)c2-c2c1cc(O)c(O)c2O (mixture of isomers) [Punicalagin],5.4 ± 2.3 % of control,–
C=C1CC[C@@H]2[C@](C)(CO)[C@H](O)CC[C@@]2(C)[C@@H]1C/C=C1/C(=O)OC[C@H]1O [Andrographolide],–,"Binging to ACE2 (% of control ± DS) (hACE2 receptor; Table 4, tested at 0.1 mg/ml): 5.6 ± 2.4 % of control; Binding to RBD (% of control ± DS) [1]: 22.1 ± 2.5 % of control"
O=c1cc(-c2ccc(O)cc2)oc2cc(O)cc(O)c12 [Apigenin],8.3 ± 1.9 % of control,–
O=c1cc(-c2ccccc2)oc2cc(O)c(O)c(O)c12 [Baicalein],7.4 ± 1.4 % of control,–
O=C(O)[C@H]1O[C@@H](Oc2cc3oc(-c4ccccc4)cc(=O)c3c(O)c2O)[C@H](O)[C@@H](O)[C@@H]1O [Baicalin],4.9 ± 1.9 % of control,–
COc1ccc2cc3[n+](cc2c1OC)CCc1cc2c(cc1-3)OCO2 [Berberine],9.4 ± 2.4 % of control,–
Oc1ccc2c(c1)OC[C@]1(O)Cc3cc(O)c(O)cc3[C@H]21 [Brazilin],4.6 ± 2.2 % of control,"binding to the ACE2 receptor itself (in words) (hACE2 receptor): neither brazilin, nor theaflavin-3,3′-digallate displayed binding affinity; concentration from which inhibition of transduction is statistically significant [2]: 10 µg/mL; affinity in binding to the RBD-spike protein of SARS-CoV-2 (in words) [1]: exhibited the highest affinity; inhibition at 100 µg/mL [1]: 100%; inhibition of pseudo-typed virion binding to hACE2/A549 (in words) [3]: similarly inhibited binding"
"C=C(C)[C@@H]1CCC(C)=C[C@H]1c1c(O)cc(CCCCC)cc1O [Cannabidiol, reference compound]",5.8 ± 2.0 % of control,–
CC(C)c1cc2c(c(O)c1O)[C@@]1(C(=O)O)CCCC(C)(C)[C@@H]1CC2 [Carnosic acid],6.9 ± 4.1 % of control,–
O[C@H]1[C@H](O)[C@@H](O)CN2CC[C@H](O)[C@H]12 [Castanospermine],5.5 ± 3.1 % of control,–
O=C(/C=C/c1ccc(O)c(O)c1)O[C@@H]1C[C@](O)(C(=O)O)C[C@@H](O)[C@H]1O [Chlorogenic acid],4.7 ± 1.6 % of control,–
COc1cc(/C=C/C(=O)CC(=O)/C=C/c2ccc(O)c(OC)c2)ccc1O [Curcumin],4.6 ± 2.4 % of control,binding to the ACE2 receptor itself (in words) (hACE2 receptor): moderate binding; concentration from which inhibition of transduction is statistically significant [2]: 5.0 µg/mL; affinity in binding to the RBD-spike protein of SARS-CoV-2 (in words) [1]: exhibited the highest affinity; inhibition at 100 µg/mL [1]: 100%; inhibition of pseudo-typed virion binding to hACE2/A549 (in words) [3]: similarly inhibited binding
O=c1c(O)c(-c2ccc(O)c(O)c2)oc2cc(O)ccc12 [Fisetin],6.0 ± 2.4 % of control,–
O=C(O)c1cc(O)c(O)c(O)c1 [Gallic acid],6.5 ± 1.3 % of control,–
O=c1c(-c2ccc(O)cc2)coc2cc(O)cc(O)c12 [Genistein],9.4 ± 2.7 % of control,–
CC1(C)[C@@H](O[C@H]2O[C@H](C(=O)O)[C@@H](O)[C@H](O)[C@H]2O[C@@H]2O[C@H](C(=O)O)[C@@H](O)[C@H](O)[C@H]2O)CC[C@]2(C)[C@H]3C(=O)C=C4[C@@H]5C[C@@](C)(C(=O)O)CC[C@]5(C)CC[C@@]4(C)[C@]3(C)CC[C@@H]12 [Glycyrrhizic acid],–,"Binging to ACE2 (% of control ± DS) (hACE2 receptor; Table 4, tested at 0.1 mg/ml): 10.1 ± 2.8 % of control"
COc1ccc([C@@H]2CC(=O)c3c(O)cc(O)cc3O2)cc1O [Hesperetin],4.9 ± 2.7 % of control,–
COc1c(O)cc2oc(-c3ccc(O)cc3)cc(=O)c2c1O [Hispidulin],7.4 ± 2.1 % of control,–
O=c1c(O)c(-c2ccc(O)cc2)oc2cc(O)cc(O)c12 [Kaempferol],6.2 ± 2.5 % of control,–
O=c1cc(-c2ccc(O)c(O)c2)oc2cc(O)cc(O)c12 [Luteolin],4.8 ± 1.6 % of control,–
O=C(O)CC(O)C(=O)O (stereo not drawn) [Malic acid],5.8 ± 1.4 % of control,–
O=c1c(O)c(-c2ccc(O)cc2O)oc2cc(O)cc(O)c12 [Morin],5.6 ± 3.1 % of control,–
O=c1c(O)c(-c2cc(O)c(O)c(O)c2)oc2cc(O)cc(O)c12 [Myricetin],5.6 ± 2.1 % of control,–
O=C1C[C@@H](c2ccc(O)cc2)Oc2cc(O)cc(O)c21 [Naringenin],8.3 ± 1.6 % of control,Binding with RBD (% of control ± SD) [1]: 20 ± 5.1 % of control
C[C@@H]1O[C@@H](O[C@H]2[C@H](Oc3cc(O)c4c(c3)O[C@H](c3ccc(O)cc3)CC4=O)O[C@H](CO)[C@@H](O)[C@@H]2O)[C@H](O)[C@H](O)[C@H]1O [Naringin],3.7 ± 1.1 % of control,–
"COc1ccc(Cc2nccc3cc(OC)c(OC)cc23)cc1OC [Papaverine, reference compound]",6.5 ± 3.7 % of control,–

Compound,Binging with ACE2 (% of control ± SD) (hACE2 receptor; tested at 0.1 mg/ml),also measured
Oc1cc(O)cc(O)c1 [Phloroglucinol],5.9 ± 3.4 % of control,–
COc1cc(/C=C/c2ccc(O)cc2)cc(OC)c1 [Pterostilbene],9.4 ± 2.5 % of control,–
O=c1c(O)c(-c2ccc(O)c(O)c2)oc2cc(O)cc(O)c12 [Quercetin],7.8 ± 3.3 % of control,–
O=C(/C=C/c1ccc(O)c(O)c1)O[C@H](Cc1ccc(O)c(O)c1)C(=O)O [Rosmarinic acid],7.9 ± 1.8 % of control,–
C[C@@H]1O[C@@H](OC[C@H]2O[C@@H](Oc3c(-c4ccc(O)c(O)c4)oc4cc(O)cc(O)c4c3=O)[C@H](O)[C@@H](O)[C@@H]2O)[C@H](O)[C@H](O)[C@H]1O [Rutin],4.8 ± 2.0 % of control,–
O=C(O)[C@H]1O[C@@H](Oc2cc3oc(-c4ccc(O)cc4)cc(=O)c3c(O)c2O)[C@H](O)[C@@H](O)[C@@H]1O [Scutellarin],7.5 ± 1.7 % of control,–
O=C(OC[C@H]1O[C@@H](OC(=O)c2cc(O)c(O)c(OC(=O)c3cc(O)c(O)c(O)c3)c2)[C@H](OC(=O)c2cc(O)c(O)c(OC(=O)c3cc(O)c(O)c(O)c3)c2)[C@@H](OC(=O)c2cc(O)c(O)c(OC(=O)c3cc(O)c(O)c(O)c3)c2)[C@@H]1OC(=O)c1cc(O)c(O)c(OC(=O)c2cc(O)c(O)c(O)c2)c1)c1cc(O)c(O)c(OC(=O)c2cc(O)c(O)c(O)c2)c1 [Tannic acid],7.2 ± 2.3 % of control,–
O=c1c(O)cc([C@H]2Oc3cc(O)cc(O)c3C[C@H]2O)cc2c([C@H]3Oc4cc(O)cc(O)c4C[C@H]3O)cc(O)c(O)c12 [Theafalvin],–,"Binging to ACE2 (% of control ± DS) (hACE2 receptor; Table 4, tested at 0.1 mg/ml): 7.9 ± 1.9 % of control; Binding to RBD (% of control ± DS) [1]: 27.3 ± 1.4 % of control"
Oc1ccc(/C=C/c2cc(O)cc(O)c2)cc1 [Trans-resveratrol],5.5 ± 2.4 % of control,–
CC(=O)c1c(O)c(C)c(O)c2c1OC1=CC(=O)C(C(C)=O)C(=O)C12C (stereo not drawn) [Usnic acid],5.7 ± 1.7 % of control,–
(+)-epigallocatechin gallate,–,"Binging to ACE2 (% of control ± DS) (hACE2 receptor; Table 4, tested at 0.1 mg/ml): 5.9 ± 2.0 % of control; Binding to RBD (% of control ± DS) [1]: 87.5 ± 6.8 % of control"
(+)-gallocatechin,–,"Binging to ACE2 (% of control ± DS) (hACE2 receptor; Table 4, tested at 0.1 mg/ml): 5.7 ± 1.6 % of control; Binding to RBD (% of control ± DS) [1]: 69.5 ± 2.8 % of control"
(−)-catechin gallate,–,"Binging to ACE2 (% of control ± DS) (hACE2 receptor; Table 4, tested at 0.1 mg/ml): 8.6 ± 1.5 % of control; Binding to RBD (% of control ± DS) [1]: 37.4 ± 4.7 % of control"
(−)-gallocatechin,–,"Binging to ACE2 (% of control ± DS) (hACE2 receptor; Table 4, tested at 0.1 mg/ml): 3.9 ± 2.3 % of control; Binding to RBD (% of control ± DS) [1]: 73.5 ± 6.7 % of control"
(−)-gallocatechin gallate,–,"Binging to ACE2 (% of control ± DS) (hACE2 receptor; Table 4, tested at 0.1 mg/ml): 7.5 ± 1.7 % of control; Binding to RBD (% of control ± DS) [1]: 75.4 ± 5.6 % of control"
D-limonene,6.4 ± 1.5 % of control,Binding with RBD (% of control ± SD) [1]: 27.2 ± 6.4 % of control
Hesperidin,8.3 ± 2.3 % of control,Binding with RBD (% of control ± SD) [1]: 90.3 ± 3.8 % of control
L-sulforaphane,–,Binging to ACE2 (% of control ± DS) (hACE2 receptor): 6.7 ± 1.5 % of control; Binding to RBD (% of control ± DS) [1]: 30.2 ± 3.6 % of control
Palmatine,8.5 ± 2.7 % of control,Binding with RBD (% of control ± SD) [1]: 40.4 ± 6.1 % of control
Procyanidin B2,5.8 ± 2.7 % of control,Binding with RBD (% of control ± SD) [1]: 31.1 ± 3.6 % of control
Procyanidin B3,7.8 ± 2.7 % of control,Binding with RBD (% of control ± SD) [1]: 32.3 ± 3.7 % of control
Schisandrin,5.1 ± 2.7 % of control,Binding with RBD (% of control ± SD) [1]: 22.4 ± 3.3 % of control
Theaflavine-3′3-digallate,–,concentration from which inhibition of transduction is statistically significant [2]: 10 µg/mL; inhibition of pseudo-typed virion binding to hACE2/A549 (in words) [3]: similarly inhibited binding
Urolithin A,8.8 ± 1.6 % of control,Binding with RBD (% of control ± SD) [1]: 31.1 ± 4.6 % of control
lipopolysaccharide,–,increase of IL-6 secretion (IL-6 secretion): 43%
